Experimental data: PMC6201295 (Leukemia & lymphoma, 2018)
Where two headings read alike, the source gives them in different places. One block for each compound: values may come before it.

What was measured:
[1] = Plasma pharmacokinetics of ATRA in study patients; type: in vivo; conditions: human, oral, 22.5 mg/m2
CYP2E1 = conditions: cited from earlier work
NAT = conditions: cited from earlier work
non-APL AML blast cells = conditions: blasts from more than half of 23 non-APL AML patients; cited from earlier work
CYP2C8 = conditions: liver microsome CYP2C8; cited from earlier work
CYP3A4 = conditions: liver microsome CYP3A4; cited from earlier work
[2] = cited from earlier work
[3] = Plasma pharmacokinetics of dasatinib in study patients
[4] = between- and within patient variability

- AUC(0-inf) [1]: 594 ng·h/mL
- AUC(0-t) [1]: 578 ng·h/mL
- Cmax [1]: 277 ng/mL
- Tmax [1]: 1.6 h
- Vd [1]: 101 L
- clearance [1]: 737 mL/min
- half-life [1]: 0.81 h
Compound: CC1=C(/C=C/C(C)=C/C=C/C(C)=C/C(=O)O)C(C)(C)CCC1 [ATRA, all-trans retinoic acid]
- increase of the activity of CYP2E1 (CYP2E1): 83%
- increase of the activity of NAT (NAT): 29%
- sensitivity of blasts to ATRA in vitro (non-APL AML blast cells): moderately sensitive

Compound: Cc1nc(Nc2ncc(C(=O)Nc3c(C)cccc3Cl)s2)cc(N2CCN(CCO)CC2)n1 [Dasatinib]
- Cmax ([2]; after a 100 mg dose, (SD)): 56 (SD 66) ng/mL
- increase in dasatinib exposure ([3]; 2 patients, after a month of combination therapy): ~50%
- Cmax ([3]; human, plasma, oral, 70 mg): 77 ng/mL
- Vd ([3]; human, plasma, oral, 70 mg): 2310 L
- AUC(0-inf) ([3]; human, plasma, oral, 100 mg): 434 ng·h/mL
- clearance ([3]; human, plasma, oral, 100 mg): 3920 mL/min
